Experimental data from US20060089375A1, “Pyrazolo[3,4-b] pyridine compounds, and their use as phosphodiesterase inhibitors” (priority 2002, published 2006).

The molecules below were run against T1, PDE4B (human recombinant) (Homo sapiens, UniProt Q07343) (assay: Inhibition of PDE4B activity: radioactive SPA or IMAP Fluorescence Polarisation (FP) assay). Settings: PDE4B inhibitory activity, one reading or average of ca. 2-6 readings, read-out: PDE4B pIC50 (± about 0.5) (converted).
T1 construct: made in house
T1 sequence (Q07343 1-564 isoform Q07343-2): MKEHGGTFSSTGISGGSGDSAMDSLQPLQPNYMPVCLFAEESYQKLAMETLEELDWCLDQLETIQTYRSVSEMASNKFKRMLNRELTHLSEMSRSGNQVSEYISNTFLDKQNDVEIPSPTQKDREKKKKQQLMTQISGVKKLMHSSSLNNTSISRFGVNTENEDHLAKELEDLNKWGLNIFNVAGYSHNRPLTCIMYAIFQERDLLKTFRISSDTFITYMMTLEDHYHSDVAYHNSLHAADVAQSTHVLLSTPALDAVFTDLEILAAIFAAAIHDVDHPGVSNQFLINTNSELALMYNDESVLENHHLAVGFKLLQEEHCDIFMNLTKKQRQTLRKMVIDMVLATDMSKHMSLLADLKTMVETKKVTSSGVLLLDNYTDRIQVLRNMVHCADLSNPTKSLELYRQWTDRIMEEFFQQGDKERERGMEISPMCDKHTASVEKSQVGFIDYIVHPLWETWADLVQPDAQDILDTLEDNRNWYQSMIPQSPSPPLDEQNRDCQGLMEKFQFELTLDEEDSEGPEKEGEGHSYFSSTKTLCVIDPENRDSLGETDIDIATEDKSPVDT
Assay type: biochemical
Summary of the method: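 SPA: yeast-expressed human recombinant PDE4B was preincubated with compound for 10–30 min at ambient temperature in Tris pH 7.5 with MgCl2, EGTA and BSA, then run 1 h with ~10 nM [3H]cAMP at ≤20% hydrolysis; 10 concentrations (1.5 nM–30 μM) gave pIC50. IMAP FP: Tris pH 7.2 with ~40 nM fluorescein-cAMP, under linear enzyme conditions.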

IC50	SMILES
12.6 nM	CCn1ncc2c(NC3CCOCC3)c(C(=O)Nc3ccc(F)cc3)cnc21 [Example 22, 1-Ethyl-N-(4-fluorophenyl)-4-(tetrahydro-2H-pyran-4-ylamino)-1H-pryazolo[3,4-b]pyridine-5-carboxamide]
12.6 to 100 nM	CCNC(=O)c1cnc2c(cnn2CC)c1NC1CCOCC1 [Example 83, 1-Ethyl-N-ethyl-4-(tetrahydro-2H-pyran-4-ylamino)-1H-pyrazolo[3,4-b]pyridine-5-carboxamide]
0.1 to 6.31 nM	CCn1ncc2c(NC3CCOCC3)c(C(=O)NCc3ccc(C(F)(F)F)cc3)cnc21 [Example 155, 1-Ethyl-4-(tetrahydro-2H-pyran-4-ylamino)-N-[4-(trifluoromethyl)benzyl]-1H-pyrazolo[3,4-b]pyridine-5-carboxamide]
